Data from ChEMBL document CHEMBL1201862, “PubChem BioAssay data set” (2004).
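Cells were grown in 96-well plates and exposed to each compound for 48 hours at five concentrations; endpoints were interpolated linearly between bracketing concentrations, or set to the highest concentration if not reached. GI50: concentration for 50% inhibition of growth.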 Calls of active or inactive are those of the source. Rule as the data show it: active = GI50 up to about 1.1 µM and inactive = higher.

Key:
Experiment in all cases: growth of human tumour cells (NCI), 48 h
A498 = tested on: A498
A549 = tested on: A549
ACHN = tested on: ACHN
COLO 205 = tested on: COLO 205
HCC 2998 = tested on: HCC 2998
HCT-116 = tested on: HCT-116
HL-60 = tested on: HL-60
HOP-62 = tested on: HOP-62
KM12 = tested on: KM12
Malme-3M = tested on: Malme-3M
NCI-H23 = tested on: NCI-H23
NCI-H460 = tested on: NCI-H460
OVCAR-5 = tested on: OVCAR-5
SK-MEL-28 = tested on: SK-MEL-28
SK-MEL-2 = tested on: SK-MEL-2
SNB-19 = tested on: SNB-19
UACC-257 = tested on: UACC-257
UO-31 = tested on: UO-31
HT-29 = tested on: HT-29
SW-620 = tested on: SW-620

Measured: GI50

CC(C)OP(=O)(OC(C)C)/C(=N/Nc1ccc([N+](=O)[O-])cc1)Nc1ccc(N/C(=N\Nc2ccc([N+](=O)[O-])cc2)P(=O)(OC(C)C)OC(C)C)cc1
inactive: A498 16.4 µM | A549 4.91 µM | ACHN 23.4 µM | COLO 205 5.2 µM | HCC 2998 2.65 µM | HCT-116 4.15 µM | HL-60 20.9 µM | HOP-62 > 100 µM | KM12 7.93 µM | Malme-3M > 100 µM | NCI-H23 13.7 µM | NCI-H460 2.31 µM | OVCAR-5 71.8 µM | SK-MEL-28 > 100 µM | SK-MEL-2 48 µM | SNB-19 27.4 µM | UACC-257 37.2 µM | UO-31 21.4 µM

CC1=C[C@@H]2[C@@H](CC(CO)=C[C@H]3[C@@H]4C(C)(C)[C@]4(OCC(C)C)[C@H](OCC(C)C)[C@@H](C)[C@]23O)C1=O
inactive: ACHN 1.23 µM | HCT-116 2.04 µM | HT-29 1.21 µM | KM12 2.16 µM | NCI-H23 1.91 µM | OVCAR-5 2.23 µM | SK-MEL-28 1.3 µM | SK-MEL-2 2.1 µM | SNB-19 > 6.01 µM | SW-620 1.19 µM | UACC-257 1.62 µM | UO-31 2.22 µM
active: A498 1.08 µM | A549 0.578 µM | COLO 205 0.243 µM | HCC 2998 0.574 µM | HL-60 0.495 µM | HOP-62 0.206 µM | Malme-3M 0.766 µM | NCI-H460 0.465 µM

N#Cc1c(N)nc(Nc2cccc3ccccc23)c(C#N)c1C#N
inactive: A498 3.5 µM | A549 5.71 µM | ACHN 4.78 µM | COLO 205 > 10 µM | HCC 2998 8.43 µM | HCT-116 2.54 µM | HL-60 1.88 µM | HOP-62 4.89 µM | HT-29 6.11 µM | KM12 7.53 µM | Malme-3M > 10 µM | NCI-H23 3.61 µM | NCI-H460 2.97 µM | OVCAR-5 > 10 µM | SK-MEL-28 3.75 µM | SK-MEL-2 > 10 µM | SNB-19 > 10 µM | SW-620 3.48 µM | UO-31 3.82 µM

COC(=O)C(NC(=O)c1ccccc1)C(c1c(O)cc(O)cc1O)P(=O)(OC)OC (stereo unspecified)
inactive: A498 > 100 µM | A549 > 100 µM | ACHN > 100 µM | COLO 205 > 100 µM | HCC 2998 > 100 µM | HCT-116 > 100 µM | HL-60 74 µM | HOP-62 > 100 µM | HT-29 > 100 µM | KM12 > 100 µM | NCI-H23 69.5 µM | NCI-H460 95.3 µM | OVCAR-5 > 100 µM | SK-MEL-28 > 100 µM | SK-MEL-2 > 100 µM | SNB-19 > 100 µM | SW-620 > 100 µM | UACC-257 > 100 µM | UO-31 > 100 µM

O=C1C[C@@H]2[C@@H](C=CC23CCCC3)N1O
inactive: A498 > 100 µM | A549 > 100 µM | ACHN > 100 µM | COLO 205 > 100 µM | HCC 2998 > 100 µM | HCT-116 > 100 µM | HL-60 > 100 µM | HOP-62 > 100 µM | HT-29 > 100 µM | KM12 > 100 µM | Malme-3M > 100 µM | NCI-H23 > 100 µM | NCI-H460 > 100 µM | OVCAR-5 > 100 µM | SK-MEL-28 > 100 µM | SK-MEL-2 > 100 µM | SNB-19 > 100 µM | SW-620 > 100 µM | UACC-257 > 100 µM | UO-31 > 100 µM

O=S(=O)(N=S(c1ccccc1)c1ccccc1)c1ccccc1
inactive: A498 78.9 µM | A549 > 100 µM | ACHN > 100 µM | COLO 205 > 100 µM | HCT-116 > 100 µM | HL-60 > 100 µM | HOP-62 > 100 µM | HT-29 > 100 µM | KM12 > 100 µM | Malme-3M > 100 µM | NCI-H23 > 100 µM | NCI-H460 > 100 µM | OVCAR-5 > 100 µM | SK-MEL-28 > 100 µM | SNB-19 > 100 µM | SW-620 > 100 µM | UACC-257 > 100 µM | UO-31 > 100 µM

NC(CCCCO)C(=O)O (stereo unspecified)
inactive: A498 > 100 µM | A549 > 100 µM | ACHN > 100 µM | COLO 205 > 100 µM | HCC 2998 > 100 µM | HL-60 > 100 µM | HOP-62 > 100 µM | HT-29 > 100 µM | KM12 > 100 µM | Malme-3M > 100 µM | NCI-H23 > 100 µM | NCI-H460 > 100 µM | OVCAR-5 > 100 µM | SK-MEL-28 > 100 µM | SK-MEL-2 > 100 µM | SNB-19 > 100 µM | SW-620 > 100 µM | UACC-257 > 100 µM | UO-31 > 100 µM

Nc1ncnc2c1cnn2Cc1ccc(Cl)cc1
inactive: A549 > 100 µM | ACHN > 100 µM | COLO 205 > 100 µM | HCC 2998 > 100 µM | HCT-116 > 100 µM | HL-60 > 100 µM | HT-29 > 100 µM | KM12 > 100 µM | NCI-H23 > 100 µM | NCI-H460 > 100 µM | SNB-19 > 100 µM | SW-620 > 100 µM | UACC-257 > 100 µM | UO-31 78.5 µM
active: A498 0.445 µM

O=C(O)c1ccccc1CN1CCCC(C(=O)O)C1 (stereo unspecified)
inactive: A498 > 100 µM | A549 > 100 µM | ACHN > 100 µM | COLO 205 > 100 µM | HCT-116 > 100 µM | HOP-62 > 100 µM | HT-29 > 100 µM | KM12 > 100 µM | Malme-3M > 100 µM | NCI-H23 > 100 µM | NCI-H460 > 100 µM | OVCAR-5 > 100 µM | SK-MEL-28 > 100 µM | SK-MEL-2 > 100 µM | SNB-19 > 100 µM | SW-620 > 100 µM | UACC-257 > 100 µM | UO-31 > 100 µM

CCCCNC(=S)Nc1nc(C(=O)NNC(=S)NC2CCCCC2)cs1
inactive: A498 > 100 µM | A549 > 100 µM | ACHN 62.7 µM | COLO 205 > 100 µM | HCC 2998 > 100 µM | HCT-116 > 100 µM | HOP-62 > 100 µM | HT-29 > 100 µM | KM12 > 100 µM | Malme-3M > 100 µM | NCI-H23 > 100 µM | OVCAR-5 > 100 µM | SK-MEL-2 > 100 µM | SW-620 > 100 µM | UACC-257 > 100 µM | UO-31 45.6 µM

C=C1C(=O)O[C@@H]2[C@H](O)[C@@H](C)[C@@H]3C=CC(=O)[C@@]3(C)[C@H](OC(=O)C=C(C)C)[C@H]12
inactive: A498 2.21 µM | A549 2.94 µM | HCC 2998 1.79 µM | HOP-62 4.35 µM | HT-29 1.26 µM | KM12 1.91 µM | NCI-H23 1.35 µM | NCI-H460 2.11 µM | OVCAR-5 2.52 µM | SK-MEL-2 1.32 µM | SNB-19 5.55 µM | UACC-257 1.59 µM | UO-31 2.82 µM
active: COLO 205 0.49 µM | HCT-116 0.655 µM | HL-60 0.2 µM | Malme-3M 0.587 µM | SK-MEL-28 0.514 µM | SW-620 0.353 µM

O=S(O)CCCCCSSSCCCCCS(=O)O
inactive: A498 > 100 µM | ACHN > 100 µM | HCC 2998 > 100 µM | HCT-116 15.5 µM | HL-60 24.7 µM | HOP-62 > 100 µM | HT-29 > 100 µM | KM12 > 100 µM | Malme-3M 6.5 µM | NCI-H23 29.8 µM | NCI-H460 > 100 µM | OVCAR-5 85.5 µM | SK-MEL-28 39.8 µM | SK-MEL-2 25.9 µM | SNB-19 > 100 µM | UACC-257 24.5 µM | UO-31 35.3 µM

Nc1nc(=O)c2c([nH]1)NCC(CNc1ccc(C(=O)N[C@@H](CCC(=O)O)C(=O)O)cc1)N2C=O (stereo partly specified) [LEUCOVORIN CALCIUM]
inactive: A549 > 125 µM | COLO 205 > 125 µM | HCC 2998 > 125 µM | HCT-116 > 125 µM | HL-60 39.5 µM | HOP-62 > 125 µM | HT-29 > 125 µM | KM12 > 125 µM | Malme-3M > 125 µM | NCI-H23 > 125 µM | NCI-H460 > 125 µM | OVCAR-5 > 95.3 µM | SK-MEL-28 > 125 µM | SK-MEL-2 40.4 µM | SNB-19 > 125 µM | SW-620 > 125 µM | UACC-257 > 125 µM | UO-31 > 125 µM

CCCCCCCCCCCCCCCCCCOP(=O)([O-])OCC[N+](C)(C)C [OCTADECYLPHOSPHONOCHOLINE]
active: ACHN < 0.0488 µM | COLO 205 0.146 µM | HCC 2998 0.245 µM | HCT-116 0.826 µM | HL-60 0.317 µM | HOP-62 0.301 µM | HT-29 0.608 µM | KM12 0.273 µM | Malme-3M 1.02 µM | NCI-H460 0.41 µM | SK-MEL-2 0.998 µM | SNB-19 0.849 µM | SW-620 0.771 µM
inactive: A498 8.41 µM | A549 1.35 µM | NCI-H23 1.13 µM | OVCAR-5 1.53 µM | SK-MEL-28 8.22 µM | UACC-257 1.19 µM | UO-31 1.13 µM
